# Columns and labels:
# [1] = tested on: bedstraw; test: Test B pre/postemergence bedstraw; type: in vivo, Galium aparine
# Description: (§1) Seeds of bedstraw (Galium aparine), blackgrass (Alopecurus myosuroides), surinam grass (Brachiaria decumbens), cocklebur (Xanthium strumarium), corn (Zea mays), crabgrass (Digitaria sanguinalis), giant foxtail (Setaria faberii), morningglory (Ipomoea hederacea), pigweed (Amaranthus retroflexus), rape (Brassica napus), soybean (Glycine max), sugar beet (Beta vulgaris), velvetleaf (Abutilon theophrasti), wheat (Triticum aestivum), wild oat (Avena fatua) and purple nutsedge (Cyperus rotundus) tubers were planted and treated preemnergence with test chemicals formulated in a non-phytotoxic solvent mixture which included a surfactant.
# (§2) At the same time, these crop and weed species were also treated with postemergence applications of test chemicals formulated in the same manner. Plants ranged in height from 2 to 18 cm (1- to 4-leaf stage) for postemergence treatments. Plant species in the flood test consisted of rice (Oryza sativa), smallflower flatsedge (Cyperus difformis), duck salad (Heteranthera limosa) and bamyardgrass (Echinochloa crus-galli) grown to the 2-leaf stage for testing. Treated plants and controls were maintained in a greenhouse for twelve to sixteen days, after which all species were compared to controls and visually evaluated. Plant response ratings, summarized in Table B, are based on a scale of 0 to 10 where 0 is no effect and 10 is complete control. A dash (−) response means no test result.
# [2] = tested on: blackgrass; test: Test B pre/postemergence blackgrass; type: in vivo, Alopecurus myosuroides
# Description: as §1, §2
# [3] = tested on: surinam grass; test: Test B pre/postemergence surinam grass; type: in vivo, Brachiaria decumbens
# Description: as §1, §2
# [4] = tested on: cocklebur; test: Test B pre/postemergence cocklebur; type: in vivo, Xanthium strumarium
# Description: as §1, §2
# [5] = tested on: corn; test: Test B pre/postemergence corn; type: in vivo, Zea mays
# Description: as §1, §2
# [6] = tested on: crabgrass; test: Test B pre/postemergence crabgrass; type: in vivo, Digitaria sanguinalis
# Description: as §1, §2
# [7] = tested on: giant foxtail; test: Test B pre/postemergence giant foxtail; type: in vivo, Setaria faberii
# Description: as §1, §2
# [8] = tested on: morningglory; test: Test B pre/postemergence morningglory; type: in vivo, Ipomoea hederacea
# Description: as §1, §2
# [9] = tested on: pigweed; test: Test B pre/postemergence pigweed; type: in vivo, Amaranthus retroflexus
# Description: as §1, §2
# [10] = tested on: rape; test: Test B pre/postemergence rape; type: in vivo, Brassica napus
# Description: as §1, §2
# [11] = tested on: soybean; test: Test B pre/postemergence soybean; type: in vivo, Glycine max
# Description: as §1, §2
# [12] = tested on: sugar beet; test: Test B pre/postemergence sugar beet; type: in vivo, Beta vulgaris
# Description: as §1, §2
# [13] = tested on: velvetleaf; test: Test B pre/postemergence velvetleaf; type: in vivo, Abutilon theophrasti
# Description: as §1, §2
# [14] = tested on: wheat; test: Test B pre/postemergence wheat; type: in vivo, Triticum aestivum
# Description: as §1, §2
# [15] = tested on: wild oat; test: Test B pre/postemergence wild oat; type: in vivo, Avena fatua
# Description: as §1, §2
# [16] = tested on: purple nutsedge; test: Test B pre/postemergence purple nutsedge; type: in vivo, Cyperus rotundus
# Description: as §1, §2
# [17] = Postemergence, Rate 62 g/ha, scale of 0 to 10, 0 is no effect, 10 is complete control
# [18] = Postemergence, Rate 125 g/ha, scale 0 to 10, 0 is no effect, 10 is complete control
# [19] = Postemergence, Rate 500 g/ha, scale 0 to 10, 0 is no effect, 10 is complete control
# [20] = Preemergence, Rate 62 g/ha, scale 0 to 10 (0 no effect, 10 complete control)
# [21] = Preemergence, Rate 125 g/ha, scale 0 to 10, 0 is no effect, 10 is complete control
# [22] = Preemergence, Rate 500 g/ha, scale of 0 to 10 where 0 is no effect and 10 is complete control
# [23] = Rate 250 g/ha, Postemergence, scale of 0 to 10 where 0 is no effect and 10 is complete control
# [24] = Preemergence, Rate 62 g/ha, scale of 0 to 10 where 0 is no effect and 10 is complete control
# [25] = Preemergence, Rate 250 g/ha, scale 0 to 10 (0 no effect, 10 complete control)
structure (smiles),measurement,setting,value
CC(C)N(C(=O)n1oc(=O)n(CCC(F)(F)F)c1=O)c1ccc(Cl)cc1 [Compound 554],Bedstraw plant response rating,[1]; [17],5
same,Bedstraw plant response rating,[1]; [18],5
same,"Plant response rating, Bedstraw",[1]; [19],9
same,Bedstraw plant response rating,[1]; [20],0
same,Bedstraw plant response rating,[1]; [21],0
same,Bedstraw plant response rating (0 to 10 scale),"[1]; Preemergence, Rate 250 g/ha",0
same,Bedstraw plant response rating,[1]; [22],0
same,"Plant response rating, Bedstraw",[1]; [23],7
same,Blackgrass plant response rating,[2]; [17],0
same,Blackgrass plant response rating,[2]; [18],3
same,Blackgrass plant response rating,[2]; [21],4
same,Blackgrass plant response rating (0 to 10 scale),"[2]; Preemergence, Rate 250 g/ha",4
same,Blackgrass plant response rating,[2]; [22],7
same,"Plant response rating, Blackgrass",[2]; [23],7
same,B. signalgrass plant response rating,[3]; [17],0
same,B. signalgrass plant response rating,[3]; [18],0
same,"Plant response rating, B. signalgrass",[3]; [19],3
same,B. signalgrass plant response rating,[3]; [20],7
same,B. signalgrass plant response rating,[3]; [21],7
same,"B. signalgrass plant response rating (0 to 10 scale, 0 is no effect, 10 is complete control)","[3]; Preemergence, Rate 250 g/ha",6
same,B. signalgrass plant response rating,[3]; [22],10
same,"Plant response rating, B. signalgrass",[3]; [23],0
same,Cocklebur plant response rating,[4]; [17],0
same,Cocklebur plant response rating,[4]; [18],0
same,"Plant response rating, Cocklebur",[4]; [19],3
same,Cocklebur plant response rating,[4]; [20],0
same,Cocklebur plant response rating,[4]; [21],0
same,Cocklebur plant response rating (0 to 10 scale),"[4]; Preemergence, Rate 250 g/ha",0
same,Cocklebur plant response rating,[4]; [22],0
same,"Plant response rating, Cocklebur",[4]; [23],0
same,Corn plant response rating,[5]; [17],0
same,Corn plant response rating,[5]; [18],0
same,"Plant response rating, Corn",[5]; [19],0
same,Corn plant response rating,[5]; [20],0
same,Corn plant response rating,[5]; [21],0
same,Corn plant response rating (0 to 10 scale),"[5]; Preemergence, Rate 250 g/ha",0
same,Corn plant response rating,[5]; [22],2
same,"Plant response rating, Corn",[5]; [23],0
same,Crabgrass plant response rating,[6]; [17],0
same,"Plant response rating, Crabgrass",[6]; [19],9
same,Crabgrass plant response rating,[6]; [20],9
same,Crabgrass plant response rating,[6]; [21],10
same,Crabgrass plant response rating,[6]; [22],10
same,"Plant response rating, Crabgrass",[6]; [23],9
same,Giant foxtail plant response rating,[7]; [17],2
same,Giant foxtail plant response rating,[7]; [18],6
same,"Plant response rating, Giant foxtail",[7]; [19],8
same,Giant foxtail plant response rating,[7]; [20],9
same,Giant foxtail plant response rating,[7]; [21],9
same,Giant foxtail plant response rating (0 to 10 scale),"[7]; Preemergence, Rate 250 g/ha",9
same,Giant foxtail plant response rating,[7]; [22],10
same,"Plant response rating, Giant foxtail",[7]; [23],8
same,Morningglory plant response rating,[8]; [17],1
same,Morningglory plant response rating,[8]; [18],2
same,"Plant response rating, Morningglory",[8]; [19],7
same,Morningglory plant response rating,[8]; [21],0
same,Morningglory plant response rating (0 to 10 scale),"[8]; Preemergence, Rate 250 g/ha",0
same,Morningglory plant response rating,[8]; [22],0
same,"Plant response rating, Morningglory",[8]; [23],5
same,Redroot pigweed plant response rating,[9]; [17],0
same,Redroot pigweed plant response rating,[9]; [20],9
same,Redroot pigweed plant response rating,[9]; [22],10
same,"Plant response rating, Redroot pigweed",[9]; [23],7
same,Rape plant response rating,[10]; [17],0
same,Rape plant response rating,[10]; [18],0
same,"Plant response rating, Rape",[10]; [19],3
same,Rape plant response rating,[10]; [20],0
same,Rape plant response rating,[10]; [21],0
same,Rape plant response rating (0 to 10 scale),"[10]; Preemergence, Rate 250 g/ha",0
same,Rape plant response rating,[10]; [22],3
same,"Plant response rating, Rape",[10]; [23],0
same,Soybean plant response rating,[11]; [17],2
same,"Plant response rating, Soybean",[11]; [19],3
same,Soybean plant response rating,[11]; [20],0
same,Soybean plant response rating,[11]; [21],0
same,Soybean plant response rating (0 to 10 scale),"[11]; Preemergence, Rate 250 g/ha",3
same,Soybean plant response rating,[11]; [22],3
same,"Plant response rating, Soybean",[11]; [23],3
same,Sugarbeets plant response rating,[12]; [17],0
same,Sugarbeets plant response rating,[12]; [20],0
same,Sugarbeets plant response rating,[12]; [21],0
same,Sugarbeets plant response rating (0 to 10 scale),"[12]; Preemergence, Rate 250 g/ha",0
same,Sugarbeets plant response rating,[12]; [22],6
same,"Plant response rating, Sugarbeets",[12]; [23],7
same,Velvetleaf plant response rating,[13]; [17],0
same,"Plant response rating, Velvetleaf",[13]; [19],0
same,Velvetleaf plant response rating,[13]; [20],0
same,Velvetleaf plant response rating,[13]; [21],0
same,Velvetleaf plant response rating (0 to 10 scale),"[13]; Preemergence, Rate 250 g/ha",0
same,Velvetleaf plant response rating,[13]; [22],0
same,"Plant response rating, Velvetleaf",[13]; [23],0
same,Wheat plant response rating,[14]; [17],0
same,Wheat plant response rating,[14]; [20],3
same,Wheat plant response rating,[14]; [21],3
same,Wheat plant response rating,[14]; [22],6
same,"Plant response rating, Wheat",[14]; [23],2
same,Wild oats plant response rating,[15]; [17],0
same,Wild oats plant response rating,[15]; [20],0
same,Wild oats plant response rating,[15]; [21],2
same,Wild oats plant response rating (0 to 10 scale),"[15]; Preemergence, Rate 250 g/ha",2
same,Wild oats plant response rating,[15]; [22],9
same,"Plant response rating, Wild oats",[15]; [23],2
same,Nutsedge plant response rating,[16]; [17],0
same,Nutsedge plant response rating,[16]; [18],0
same,"Plant response rating, Nutsedge",[16]; [19],0
same,Nutsedge plant response rating,[16]; [20],0
same,Nutsedge plant response rating,[16]; [21],0
same,Nutsedge plant response rating (0 to 10 scale),"[16]; Preemergence, Rate 250 g/ha",0
same,Nutsedge plant response rating,[16]; [22],0
same,"Plant response rating, Nutsedge",[16]; [23],0
CC(C)N(C(=O)n1oc(=O)n(C(C)C2CC2)c1=O)c1ccc(Cl)cc1 (stereo not drawn) [Compound 700],Bedstraw plant response rating,[1]; [24],0
same,"Plant response rating, Bedstraw",[1]; [25],0
same,"Plant response rating, Bedstraw",[1]; [22],8
same,Blackgrass plant response rating,[2]; [24],4
same,"Plant response rating, Blackgrass",[2]; [25],8
same,"Plant response rating, Blackgrass",[2]; [22],10
same,B. signalgrass plant response rating,[3]; [24],4
same,"Plant response rating, B. signalgrass",[3]; [25],8
same,"Plant response rating, B. signalgrass",[3]; [22],10
same,Cocklebur plant response rating,[4]; [24],0
same,"Plant response rating, Cocklebur",[4]; [25],0
same,"Plant response rating, Cocklebur",[4]; [22],0
same,Corn plant response rating,[5]; [24],0
same,"Plant response rating, Corn",[5]; [25],3
same,Crabgrass plant response rating,[6]; [24],10
same,"Plant response rating, Crabgrass",[6]; [25],10
same,Giant foxtail plant response rating,[7]; [24],10
same,Morningglory plant response rating,[8]; [24],0
same,Redroot pigweed plant response rating,[9]; [24],0
same,Rape plant response rating,[10]; [24],0
same,Soybean plant response rating,[11]; [24],0
same,Sugarbeets plant response rating,[12]; [24],0
same,Velvetleaf plant response rating,[13]; [24],0
same,Wheat plant response rating,[14]; [24],0
same,Wild oats plant response rating,[15]; [24],4

# Reference: patent US6737383B1, “Herbicidal oxadiazolidines” (priority 1999, dated 2004)
